Patent publication US7939509B2, “Partial and full agonists of A1 adenosine receptors” (Gilead Sciences, Inc., priority 2002, dated 2011)

System: rats fed high fat diet
Assay: Oral glucose tolerance test after 2 week treatment in high fat diet rats
Format: in vivo, rat
Conditions: 5 mg/kg SC twice a day for 2 weeks, HF rats
Protocol: Animals were fasted overnight before taking samples. Compound A was given twice daily via a SC injection for 2 weeks at a dose of 5 mg/kg. Data is presented as mean±SEM from number of animals indicated in the parenthesis for each group. […] All experimental procedures were performed under a protocol approved by the IACUC (CV Therapeutics, Inc.) and in accordance with the recommendations set forth in the Guide for the Care and Use of Laboratory Animals published by the National Research Council. Male Sprague-Dawley rats (225-250 gm) with either one or two indwelling catheters (carotid and jugular) were obtained from Charles River Laboratories (Wilmington, Mass.). Animals were housed 1 per cage in a room maintained on a 12 h light/dark cycle (light on 06.00-18.00 h) under constant temperature (22-25° C.) and with ad libitum access to food and water. Rats on normal diet (Chow) were fed standard laboratory chow (12% fat, 60% carbohydrate, and 28% protein) throughout the study, while animals in the high fat (HF) diet group were given a diet (TD88137 from Harlan Teklad, Madison, Wis.) containing 42% fat, 43% carbohydrate, and 15% protein. […] On the day of the experiment, animals were put in metabolic cages and left undisturbed to acclimate to the environment for 1-2 hrs. An infusion set (21 G×¾″, 0.8×19 mm U.T.W., 3½″, 9 cm tubing, volume 0.15 ml) was connected to the arterial catheter for blood sampling. A 1% sodium citrate saline solution was used to flush the lines. A pre-treatment blood sample was obtained from each animal to determine baseline values for glucose, insulin, FFA and TG. Blood samples were collected into plasma and serum separator tubes (Becton Dickinson, Franklin Lakes, N.J.) at pre-determined time points. Oral glucose tolerance test (OGTT) was performed by giving 2 gm/kg of glucose load. […] For chronic experiments Compound A was administered twice a day via subcutaneous injection at a dose of 5 mg/kg for 2 weeks. […] Data form OGTT was analyzed by calculating area under the curve (AUC) using prism graphpad software. […]

## O[C@@H]1[C@H](O)[C@@H](CSc2ccccc2F)O[C@H]1n1cnc2c(N[C@@H]3CCC[C@H]3O)ncnc21 [Compound A, 2-{6-[((1R,2R)-2-hydroxycyclopentyl)amino]purin-9-yl}(4S,5S,2R,3R)-5-[(2-fluorophenylthio)methyl]oxolane-3,4-diol]
  glucose levels in OGTT: did not vary
  total integrated plasma insulin levels (AUC) in OGTT: significantly (p<0.05) lower
